From US9840464B2, “IAP binding compounds” (TetraLogic Birinapant UK Ltd., priority 2004, dated 2017)
Structures can show the parent of a compound that is named as a salt.

Target: XIAP-BIR3 (Homo sapiens, UniProt P98170)
Test: XIAP BIR3 fluorescence polarization binding assay (competition with AbuRPF-K(5-Fam)-NH2)
Conditions: 5 nM AbuRPF-K(5-Fam)-NH2, 40 nM XIAP-BIR3, pH 7.5; Kd calculated from measured IC50; read-out: KD Range
Description: Binding constants (Kd) were measured using fluorescence polarization as described by Zaneta Nikolovska-Coleska, Renxiao Wang, Xueliang Fang, Hongguang Pan, York Tomita, Peng Li, Peter P. Roller, Krzysztof Krajewski, Naoyuki Saito, Jeanne Stuckey and Shaomeng Wang, in “Development and Optimization of a Binding Assay for the XIAP BIR3 Domain Using Fluorescence Polarization”, Analytical Biochemistry 2004, 332, 261-273). Briefly, test IAP binding compounds at various concentrations for binding measurements were mixed with 5 nM fluorescently labeled peptide (AbuRPF-K(5-Fam)-NH2) and 40 nM of XIAP-BIR3 for 15 minutes at room temperature in 100 μL of 0.1M Potassium Phosphate buffer, pH 7.5 containing 100 μg/ml bovine γ-globulin. Following incubation, the polarization values (mP) were measured on a Victor^2V using a 485 nm excitation filter and a 520 nm emission filter. IC50 values were determined from the plot using nonlinear least-squares analysis using GraphPad Prism. The Kd values of competitive inhibitors were calculated using the equation described by Zaneta Nikolovska-Coleska et al. based upon the measured IC50 values, the Kd value of the probe and XIAP BIR3 complex, and the concentrations of the protein and probe in the competition assay. In various examples of IAP binding or IAP binding cargo molecules ranges for Kd values: Group A: Kd<0.1 μM; Group B: Kd=0.1-1 μM; Group C: Kd=1-10 μM; Group D: Kd>10 μM.

XIAP-BIR3, sequence (P98170 241-356 limits assumed): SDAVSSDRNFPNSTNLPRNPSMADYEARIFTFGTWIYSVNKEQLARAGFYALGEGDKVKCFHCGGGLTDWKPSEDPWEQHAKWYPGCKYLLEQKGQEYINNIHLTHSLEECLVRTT

Compound	Kd
2-Amino-N-{2-methyl-1-[2-(5-pyridin-2-yl-benzofuran-3-ylmethyl)-pyrrolidine-1-carbonyl]-propyl}-propionamide [Entry 8-79]	1000 to 10000 nM
CC(N)C(=O)NC(C(=O)N1CCCC1CCCOc1ccccc1-c1ccccc1)C(C)C (single isomer, unassigned) [Entry 4-36]	> 10000 nM
CC(N)C(=O)NC(C(=O)N1CC(Oc2ccccc2)CC1Cc1coc2ccccc12)C(C)C (single isomer, unassigned) [Entry 5-53]	1000 to 10000 nM
CC(C)[C@H](NC(=O)[C@H](C)N)C(=O)N1C[C@@H](Oc2ccccc2)C[C@H]1COc1ccccc1 [Entry 2-1, 2S-Amino-N-[2-methyl-1S-(4S-phenoxy-2S-phenoxymethyl-pyrrolidine-1-carbonyl)-propyl]-propionamide hydrochloride]	100 to 1000 nM
CN[C@@H](C)C(=O)N[C@H](C(=O)N1C[C@@H](Oc2ccccc2)C[C@H]1COc1ccccc1)C(C)C [Entry 2-2]	100 to 1000 nM
CC(N)C(=O)NC(C(=O)N1CCCC1COc1ccccc1)C(C)C (centres unmarked) [Entry 2-3]	100 to 1000 nM
CNC(C)C(=O)NC(C(=O)N1CCCC1COc1ccccc1-c1ccccc1)C(C)C (centres unmarked) [Entry 2-5]	100 to 1000 nM
CC(N)C(=O)NC(C(=O)N1CCCC1COc1ccccc1-c1ccccc1)C(C)C (centres unmarked) [Entry 2-6]	100 to 1000 nM
C#CCOC(C)[C@H](NC(=O)[C@H](C)N)C(=O)N1C[C@@H](Oc2ccccc2)C[C@H]1COc1ccccc1 (some centres unmarked) [Entry 2-7]	< 100 nM
CC(C)[C@H](NC(=O)[C@H](C)N)C(=O)N1C[C@@H](Oc2ccccc2)C[C@H]1/C=C/COc1ccccc1 [Entry 3-8]	100 to 1000 nM
CC(C)[C@H](NC(=O)[C@H](C)N)C(=O)N1C[C@@H](Oc2ccccc2)C[C@H]1/C=C/COc1ccccc1Br [Entry 3-9]	100 to 1000 nM
CC(C)[C@H](NC(=O)[C@H](C)N)C(=O)N1C[C@@H](Oc2ccccc2)C[C@H]1/C=C/COc1cccc(Cl)c1Cl [Entry 3-10]	100 to 1000 nM
CC(C)[C@H](NC(=O)[C@H](C)N)C(=O)N1C[C@@H](Oc2ccccc2)C[C@H]1/C=C/COc1ccc(Cl)cc1Cl [Entry 3-11]	100 to 1000 nM
CCc1ccccc1OC/C=C/[C@@H]1C[C@H](Oc2ccccc2)CN1C(=O)[C@@H](NC(=O)[C@H](C)N)C(C)C [Entry 3-12, trans-2S-Amino-N-(1S-{2S-[3-(2-ethyl-phenoxy)-propenyl]-4S-phenoxy-pyrrolidine-1-carbonyl}-2-methyl-propyl)-propionamide]	100 to 1000 nM
CN[C@@H](C)C(=O)N[C@H](C(=O)N1C[C@@H](Oc2ccccc2)C[C@H]1/C=C/COc1cccc(Cl)c1Cl)C(C)C [Entry 3-13]	100 to 1000 nM
CC(C)[C@H](NC(=O)[C@H](C)N)C(=O)N1C[C@@H](Oc2ccccc2)C[C@H]1/C=C/COc1cccc(Br)c1 [Entry 3-14]	100 to 1000 nM
CC(C)Oc1ccccc1OC/C=C/[C@@H]1C[C@H](Oc2ccccc2)CN1C(=O)[C@@H](NC(=O)[C@H](C)N)C(C)C [Entry 3-15]	100 to 1000 nM
CC(C)[C@H](NC(=O)[C@H](C)NC(=O)OC(C)(C)C)C(=O)N1C[C@@H](Oc2ccccc2)C[C@H]1/C=C/COc1ccc2c(c1)CCCC2 [Entry 3-16]	> 10000 nM
COc1ccccc1OC/C=C/[C@@H]1C[C@H](Oc2ccccc2)CN1C(=O)[C@@H](NC(=O)[C@H](C)N)C(C)C [Entry 3-18]	100 to 1000 nM
COc1ccccc1OC/C=C/[C@@H]1C[C@H](Oc2ccccc2)CN1C(=O)[C@@H](NC(=O)CN)C(C)C [Entry 3-19]	> 10000 nM

Compound	Kd
CC(C)[C@H](NC(=O)[C@H](C)N)C(=O)N1C[C@@H](Oc2ccccc2)C[C@H]1/C=C/COc1ccccc1-c1ccccc1 [Entry 3-20]	100 to 1000 nM
Cc1cccc(C)c1OC/C=C/[C@@H]1C[C@H](Oc2ccccc2)CN1C(=O)[C@@H](NC(=O)[C@H](C)N)C(C)C [Entry 3-22]	< 100 nM
CCc1ccccc1OCCC[C@H]1C[C@H](Oc2ccccc2)CN1C(=O)[C@@H](NC(=O)[C@H](C)N)C(C)C [Entry 4-25, 2S-Amino-N-(1S-{2S-[3-(2-ethyl-phenoxy)-propyl]-4S-phenoxy-pyrrolidine-1-carbonyl}-2-methyl-propyl)-propionamide]	100 to 1000 nM
CCc1ccccc1OCCC[C@@H]1C[C@H](Oc2ccccc2)CN1C(=O)[C@@H](NC(=O)[C@H](C)NC)C(C)C [Entry 4-26]	100 to 1000 nM
CCc1ccccc1OCCCC1CC(Oc2ccccc2)CN1C(=O)C(NC(=O)CN)C(C)C (centres unmarked) [Entry 4-27]	> 10000 nM
CCc1ccccc1OCCC[C@@H]1C[C@H](Oc2ccccc2)CN1C(=O)[C@@H](NC(=O)[C@H](C)NC)C(C)(C)C [Entry 4-28]	100 to 1000 nM
CC(C)Oc1ccccc1OCCC[C@@H]1C[C@H](Oc2ccccc2)CN1C(=O)[C@@H](NC(=O)[C@H](C)N)C(C)C [Entry 4-29]	100 to 1000 nM
CC(C)c1ccccc1OCCC[C@@H]1C[C@H](Oc2ccccc2)CN1C(=O)[C@@H](NC(=O)[C@H](C)N)C(C)C [Entry 4-30]	100 to 1000 nM
Cc1cccc(C)c1OCCC[C@@H]1C[C@H](Oc2ccccc2)CN1C(=O)[C@@H](NC(=O)[C@H](C)N)C(C)C [Entry 4-31]	100 to 1000 nM
CC(C)[C@H](NC(=O)[C@H](C)N)C(=O)N1CCC[C@H]1CCCOc1ccccc1-c1ccccc1 [Entry 4-32]	100 to 1000 nM
CCc1ccccc1OCCCC1CCCN1C(=O)C(NC(=O)C(C)N)C(C)C (centres unmarked) [Entry 4-34]	1000 to 10000 nM
CC(C)Oc1ccccc1OCCCC1CCCN1C(=O)C(NC(=O)C(C)N)C(C)C (centres unmarked) [Entry 4-35]	1000 to 10000 nM
CC(N)C(=O)NC(C(=O)N1CCCC1CCCOc1ccccc1)C(C)C (centres unmarked) [Entry 4-37]	1000 to 10000 nM
Cc1cccc(C)c1OCCCC1CCCN1C(=O)C(NC(=O)C(C)N)C(C)C (centres unmarked) [Entry 4-38]	> 10000 nM
CC(C)[C@H](NC(=O)[C@H](C)N)C(=O)N1C[C@@H](Oc2ccccc2)C[C@H]1Cc1coc2ccccc12 [Entry 5-39]	< 100 nM
C[C@H](N)C(=O)N[C@H](C(=O)N1C[C@@H](Oc2ccccc2)C[C@H]1Cc1coc2ccccc12)C(C)(C)C [Entry 5-40]	< 100 nM
CC(C)[C@H](NC(=O)[C@H](C)N)C(=O)N1CCC[C@H]1Cc1coc2ccccc12 [Entry 5-41, 2S-Amino-N-[1S-(2S-benzofuran-3-ylmethyl-pyrrolidine-1-carbonyl)-2-methyl-propyl]-propionamide]	< 100 nM
CN[C@@H](C)C(=O)N[C@H](C(=O)N1C[C@@H](Oc2ccccc2)C[C@H]1Cc1coc2ccccc12)C1CCCCC1 [Entry 5-43]	< 100 nM
CC[C@H](N)C(=O)N[C@H](C(=O)N1C[C@@H](Oc2ccccc2)C[C@H]1Cc1coc2ccccc12)C(C)C [Entry 5-44]	< 100 nM
CN[C@@H](C)C(=O)N[C@H](C(=O)N1C[C@@H](Oc2ccccc2)C[C@H]1Cc1coc2ccccc12)C(C)C [Entry 5-45]	< 100 nM

Compound	Kd
CC(C)C(NC(=O)CN)C(=O)N1CCCC1Cc1coc2ccccc12 (centres unmarked) [Entry 5-46]	> 10000 nM
CC(N)C(=O)NC(C(=O)N1CCCC1Cc1coc2ccccc12)C1CCCCC1 (centres unmarked) [Entry 5-47]	< 100 nM
CC(C)C(NC(=O)CN)C(=O)N1CC(Oc2ccccc2)CC1Cc1coc2ccccc12 (centres unmarked) [Entry 5-52]	1000 to 10000 nM
CC[C@H](NC(=O)[C@H](C)N)C(=O)N1C[C@@H](Oc2ccccc2)C[C@H]1Cc1coc2ccccc12 [Entry 5-54]	< 100 nM
CC[C@H](NC(=O)[C@@H](N)CC)C(=O)N1C[C@@H](Oc2ccccc2)C[C@H]1Cc1coc2ccccc12 [Entry 5-55]	100 to 1000 nM
CC[C@H](N)C(=O)N[C@H](C(=O)N1C[C@@H](Oc2ccccc2)C[C@H]1Cc1coc2ccccc12)C1CCCCC1 [Entry 5-56]	100 to 1000 nM
CNC(C)C(=O)NC(C(=O)N1CCCC1Cc1coc2ccccc12)C(C)C (centres unmarked) [Entry 5-57]	< 100 nM
CCC(N)C(=O)NC(C(=O)N1CCCC1Cc1coc2ccccc12)C(C)C (centres unmarked) [Entry 5-58]	100 to 1000 nM
CCC(NC(=O)C(C)N)C(=O)N1CCCC1Cc1coc2ccccc12 (centres unmarked) [Entry 5-59]	100 to 1000 nM
C#CCOC(C)[C@H](NC(=O)[C@H](C)N)C(=O)N1CCC[C@H]1Cc1coc2ccccc12 (some centres unmarked) [Entry 5-60]	< 100 nM
CC(N)C(=O)NC(C(=O)N1CCCC1Cc1coc2ccc(Cl)cc12)C(C)C (centres unmarked) [Entry 5-61]	< 100 nM
CNC(C)C(=O)NC(C(=O)N1CCCC1Cc1coc2ccc(Cl)cc12)C(C)C (centres unmarked) [Entry 5-62]	< 100 nM
CC(C)C(NC(=O)C(C)(C)N)C(=O)N1CCCC1Cc1coc2ccccc12 (centres unmarked) [Entry 5-64]	> 10000 nM
CC(=O)NC(C)C(=O)NC(C(=O)N1CCCC1Cc1coc2ccccc12)C(C)C (centres unmarked) [Entry 5-65]	> 10000 nM
CC(NC=O)C(=O)NC(C(=O)N1CCCC1Cc1coc2ccccc12)C(C)C (centres unmarked) [Entry 5-67]	> 10000 nM
CCNC(C)C(=O)NC(C(=O)N1CCCC1Cc1coc2ccccc12)C(C)C (centres unmarked) [Entry 5-68]	1000 to 10000 nM
CC(NCC1CC1)C(=O)NC(C(=O)N1CCCC1Cc1coc2ccccc12)C(C)C (centres unmarked) [Entry 5-70]	1000 to 10000 nM
CC(C)C(NC(=O)C1CCCN1)C(=O)N1CCCC1Cc1coc2ccccc12 (centres unmarked) [Entry 5-74]	> 10000 nM
CC(N)C(=O)NC(C(=O)N1CCCC1Cc1coc2ccc(O)cc12)C(C)C (centres unmarked) [Entry 6-75, 2-Amino-N-{1-[2-(5-hydroxy-benzofuran-3-ylmethyl)-pyrrolidine-1-carbonyl]-2-methyl-propyl}-propionamide]	1000 to 10000 nM
